Consider 27 molecules from US7842703B2, “Substituted benzofused derivatives and their use as vanilloid receptor ligands” (Glenmark Pharmaceuticals S.A., priority 2005, dated 2010).

This test addresses T1, Human TRPV1 expressing CHO cells (Homo sapiens, UniProt Q8NER1).
T1 construct: expressed in transfected cells; host or cells: CHO cells under G-418 selection
In words: Screening for TRPV1 antagonist using the 45Calcium uptake assay (inhibition of capsaicin induced cellular uptake of radioactive calcium). The note with it: for inhibition at 1 µM: CHO; for inhibition at 1 µM / % inhibition of ^45Ca uptake at 1 μM: test compound 1 μM, capsaicin 250 nM, relative to maximum ^45Ca uptake induced by capsaicin alone; for IC50: inhibition of capsaicin (250 nM) induced ^45Ca uptake. The class given is cell-based. As to the method: The inhibition of TRPV1 receptor activation was followed as inhibition of capsaicin induced cellular uptake of radioactive calcium which represents calcium influx exclusively through the plasma membrane associated TRPV1 receptor.
Stock solution of capsaicin was made in ethanol and test compounds in 100% DMSO. Stock solutions were diluted to appropriate final concentrations in assay buffer keeping the final DMSO concentration between 0.1% and 0.55%.
^45Ca was used at a final concentration of 2.5 μCi/ml (^45Ca, ICN).
Assay buffer was composed of F-12 DMEM medium supplemented with 1.8 mM CaCl2 (final conc.) and 0.1% Bovine serum albumin. (BSA from SIGMA)
Wash buffer was tyrodes solution supplemented with 0.1% BSA and 1.8 mM calcium. Lysis buffer contained 50 mM Tris-HCl, pH7.5, 150 mM NaCl, 1% Triton X-100, 0.5% deoxycholate and 0.1% Sodium dodicyl sulphate (SDS, SIGMA)
Assay was carried out with some modifications the of procedure as described by Toth et. al. (See Toth A et. al., Life Sciences 73 p 487-498, 2003). Human TRPV1 expressing CHO cells were grown in F-12 DMEM (Dulbecco's modified Eagle's medium—GIBCO) medium with 10% FBS (fetal bovine serum Hyclone), 1% penicillin-streptomycin solution, 400 μg/ml of G-418. Cells were seeded 48 h prior to the assay in 96 well plates so as to get ˜50,000 cells per well on the day of experiment. Plates were incubated at 37° C. in the presence of 5% CO2. Cells were then washed twice with 200 μl of assay buffer and re-suspended in 144 μl of the same. Assay was carried out at 30° C. in total volume of 200 μl. Test compounds were added to the cells fifteen minutes before addition of capsaicin, Final concentration of capsaicin in the assay was 250 nM. After 5 minutes of agonist treatment, drug was washed out and wells rinsed with 300 μl of ice cold wash buffer 3×. The cells were lysed in 50 μl lysis buffer for 20 min. 40 μl of cell lysate was mixed with 150 μl of Microscint PS, left overnight for equilibration. Radioactivity in samples was measured as counts per minute (cpm) using Packard Biosciences Top Count. The drug/vehicle/capsaicin treated ^45Ca uptake values were normalized over basal ^45Ca value. Data was expressed as % inhibition of ^45Ca uptake by test compound with respect to maximum ^45Ca uptake induced by capsaicin alone. IC50 value was calculated from dose response curve by nonlinear regression analysis using GraphPadPRISM software.

T1 sequence (Q8NER1 whole entry): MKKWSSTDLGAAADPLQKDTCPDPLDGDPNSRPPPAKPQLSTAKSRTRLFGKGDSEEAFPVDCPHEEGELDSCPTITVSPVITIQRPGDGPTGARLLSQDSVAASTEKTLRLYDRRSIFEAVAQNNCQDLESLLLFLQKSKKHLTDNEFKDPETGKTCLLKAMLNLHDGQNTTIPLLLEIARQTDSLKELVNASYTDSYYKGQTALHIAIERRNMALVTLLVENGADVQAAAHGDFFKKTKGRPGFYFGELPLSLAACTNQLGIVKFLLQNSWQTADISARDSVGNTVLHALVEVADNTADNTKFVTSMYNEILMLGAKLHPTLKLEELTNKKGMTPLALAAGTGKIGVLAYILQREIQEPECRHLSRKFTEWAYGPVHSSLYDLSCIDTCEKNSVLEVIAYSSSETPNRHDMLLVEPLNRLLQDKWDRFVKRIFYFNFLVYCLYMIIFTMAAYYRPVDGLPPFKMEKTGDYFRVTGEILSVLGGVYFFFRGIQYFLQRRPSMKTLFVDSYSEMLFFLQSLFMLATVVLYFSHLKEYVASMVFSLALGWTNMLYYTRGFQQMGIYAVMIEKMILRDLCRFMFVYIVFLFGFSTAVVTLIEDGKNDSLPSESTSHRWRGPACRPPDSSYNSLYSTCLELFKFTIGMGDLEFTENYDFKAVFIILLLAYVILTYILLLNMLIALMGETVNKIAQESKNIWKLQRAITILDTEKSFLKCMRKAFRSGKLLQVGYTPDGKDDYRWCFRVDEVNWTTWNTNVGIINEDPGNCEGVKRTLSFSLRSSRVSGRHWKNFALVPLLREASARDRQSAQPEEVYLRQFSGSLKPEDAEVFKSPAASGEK

As to `CN1CCC2(CC1)CC(NC(=O)Nc1cccc3cnccc13)c1ccccc1O2` (racemic) [Example 1, (±) 1-{3,4-Dihydro-1′-(methyl)spiro-[2H-1-benzopyran-2,4′-piperidine]-4-yl}-3-(isoquinoline-5-yl)urea], the inhibition at 1 µM stood at 142%.
As for `O=C(Nc1cccc2cnccc12)NC1CC2(CCOCC2)Oc2ccccc21` (racemic) [Example 2, (±) 1-(2′,3,3′,4,5′,6′-Hexahydrospiro-[2H]-1-benzopyran-2,4′-pyran-4-yl)-3-(isoquinoline-5-yl)urea], the IC50 amounted to 171 nM and the “% inhibition of ^45Ca uptake at 1 μM” value was found to be 96.12%.
For `O=C(Nc1cccc2cnccc12)NC1CC2(CCC2)Oc2ccccc21` (racemic) [Example 3, (±) 1-(3,4-Dihydro-spiro-[2H-1-benzopyran-2,1′-cyclobutan]-4-yl)-3-(isoquinolin-5-ylurea], in that order: 2.89 nM and 100%.
Consider `O=C(Nc1ccc(Cl)c2cnccc12)NC1CC2(CCC2)Oc2ccccc21` (racemic) [Example 6, (±) 1-(3,4-dihydro-spiro[2H-1-benzopyran-2,1′-cyclobutane]-4-yl)-3-(8-chloroisoquinolin-5-ylurea], for which the inhibition at 1 µM is greater than 50% and the IC50 came out at 339 nM.
For `Cc1cc2c(NC(=O)NC3CC4(CCC4)Oc4ccccc43)cccc2cn1` (racemic) [Example 7, (±) 1-(3,4-Dihydro-spiro[2H-1-benzopyran-2,1′-cyclobutane]-4-yl)-3-(3-methylisoquinolin-5-yl)urea] the same measures were greater than 50% and 183 nM.
Turning to `Cc1nccc2c(NC(=O)NC3CC4(CCC4)Oc4ccccc43)cccc12` (racemic) [Example 8, (±) 1-(3,4-Dihydro-spiro[2H-1-benzopyran-2,1′-cyclobutane]-4-yl)-3-(1-methylisoquinolin-5-yl)urea], the inhibition at 1 µM is greater than 50% and the IC50 is 551 nM.
For `O=C(Nc1cccc2c[n+]([O-])ccc12)NC1CC2(CCC2)Oc2ccccc21` (racemic) [Example 9, (±) 1-(3,4-Dihydro-spiro[2H-1-benzopyran-2,1′-cyclobutane]-4-yl)-3-(2-oxoisoquinolin-5-yl)urea], in that order: greater than 50% and 103 nM.
On to `O=C(Nc1nc2ccc(Cl)cc2s1)NC1CC2(CCC2)Oc2ccccc21` (racemic) [Example 11, (±) 1-(3,4-Dihydro-spiro[2H-1-benzopyran-2,1′-cyclobutane]-4-yl)-3-(6-chloro-1,3-benzothiazol-2-yl)urea], for which the inhibition at 1 µM was less than 50%.
Consider `Cn1ncc2cc(NC(=O)NC3CC4(CCC4)Oc4ccccc43)ccc21` (racemic) [Example 13, (±) 1-(3,4-Dihydro-spiro[2H-1-benzopyran-2,1′-cyclobutane]-4-yl)-3-(1-methyl-1H-indazol-5-yl)urea], for which the inhibition at 1 µM was greater than 50% and the half-inhibitory concentration (IC50) came to 147 nM.
As to `COc1ccc2nc(NC(=O)NC3CC4(CCC4)Oc4ccccc43)sc2c1` (racemic) [Example 14, (±) 1-(3,4-Dihydro-spiro[2H-1-benzopyran-2,1′-cyclobutane]-4-yl)-3-(6-methoxy-1,3-benzothiazol-2-yl)urea], the inhibition at 1 µM is less than 50%.
`Cn1cc2cc(NC(=O)NC3CC4(CCC4)Oc4ccccc43)ccc2n1` (racemic) [Example 15, (±) 1-(3,4-Dihydro-spiro[2H-1-benzopyran-2,1′-cyclobutane]-4-yl)-3-(2-methyl-2H-indazol-5-yl)urea]: the inhibition at 1 µM was less than 50%.
Take `CC(C)(C)c1nnc(NC(=O)NC2CC3(CCC3)Oc3ccccc32)s1` (racemic) [Example 16, (±) 1-(3,4-Dihydro-spiro[2H-1-benzopyran-2,1′-cyclobutane]-4-yl)-3-(5-tert-butyl-1,3,4-thiadiazol-2-yl)urea]: the inhibition at 1 µM was greater than 50% and the IC50 was 797 nM.
Consider `O=C(Nc1ncc(-c2ccc(Br)cc2)s1)NC1CC2(CCC2)Oc2ccccc21` (racemic) [Example 17, (±) 1-(3,4-Dihydro-spiro[2H-1-benzopyran-2,1′-cyclobutane]-4-yl)-3-[5-(4-bromophenyl)-1,3-thiazol-2-yl])urea], for which the “% inhibition of ^45Ca uptake at 1 μM” value was less than 50%.
With `Cc1ccc2nc(NC(=O)NC3CC4(CCC4)Oc4ccccc43)sc2c1` (racemic) [Example 18, (±) 1-(3,4-Dihydro-spiro[2H-1-benzopyran-2,1′-cyclobutane]-4-yl)-3-(6-methyl-1,3-benzothiazol-2-yl)urea], the inhibition at 1 µM was less than 50%.
Still for that read-out and setting: in the case of `CC(=O)n1ncc2cc(NC(=O)NC3CC4(CCC4)Oc4ccccc43)ccc21` (racemic) [Example 19, (±) 1-(3,4-Dihydro-spiro[2H-1-benzopyran-2,1′-cyclobutane]-4-yl)-3-(1-acetyl-1H-indazol-5-yl)urea] it was less than 50%.
In the case of `O=C(Nc1csc2cnccc12)NC1CC2(CCC2)Oc2ccccc21` (racemic) [Example 20, (±) 1-(3,4-Dihydro-spiro[2H-1-benzopyran-2,1′-cyclobutane]-4-yl)-3-(thieno[2,3-c]pyridine-3-ylurea], the “% inhibition of ^45Ca uptake at 1 μM” value is less than 50%.
The same measure, in the same setting: the result for `O=C(Nc1nnc(-c2ccc(Br)cc2)s1)NC1CC2(CCC2)Oc2ccccc21` (racemic) [Example 21, (±) 1-(3,4-Dihydro-spiro[2H-1-benzopyran-2,1′-cyclobutane]-4-yl)-3-([5-(4-bromophenyl)-1,3,4-thiadiazol-2-yl]-)urea] reads less than 50%.
`Cc1cc(C)nc(NC(=O)NC2CC3(CCC3)Oc3ccccc32)n1` (racemic) [Example 22, (±) 1-(3,4-Dihydro-spiro[2H-1-benzopyran-2,1′-cyclobutane]-4-yl)-3-(4,6-dimethylpyrimidin-2-yl)urea]: the inhibition at 1 µM was less than 50%.
On to `O=C(Nc1nc2cc(Cl)ccc2o1)NC1CC2(CCC2)Oc2ccccc21` (racemic) [Example 23, (±) 1-(3,4-Dihydro-spiro[2H-1-benzopyran-2,1′-cyclobutane]-4-yl)-3-(5-chloro-1,3-benzoxazol-2-yl)urea], for which the inhibition at 1 µM is less than 50%.
Same read-out and setting: in the case of `O=C(Nc1nnc(-c2ccc([N+](=O)[O-])cc2)s1)NC1CC2(CCC2)Oc2ccccc21` (racemic) [Example 24, (±) 1-(3,4-Dihydro-spiro[2H-1-benzopyran-2,1′-cyclobutane]-4-yl)-3-(5-(4-nitrophenyl)-1,3,4-thiadiazol-2-yl)urea] it was less than 50%; in that of `O=C(NCc1ccco1)NC1CC2(CCC2)Oc2ccccc21` (racemic) [Example 25, (±) 1-(3,4-Dihydro-spiro[2H-1-benzopyran-2,1′-cyclobutan]-4-yl)-3-(2-furylmethyl)urea], less than 50%.
In the case of `O=C(Nc1cccc2ncccc12)NC1CC2(CCC2)Oc2ccccc21` (racemic) [Example 26, (±) 1-(3,4-Dihydrospiro[2H-1-benzopyran-2,1′-cyclobutan]-4-yl)-3-(quinolin-5-yl)urea], the inhibition at 1 µM turned out to be 19.8%.
The same measure, in the same setting: the result for `O=C(Nc1cccc2ccncc12)NC1CC2(CCC2)Oc2ccccc21` (racemic) [Example 27, (±) 1-(3,4-Dihydrospiro[2H-1-benzopyran-2,1′-cyclobutan]-4-yl)-3-(isoquinolin-8-yl)urea] reads 46.9%; that for `O=C(NCc1cccnc1)NC1CC2(CCC2)Oc2ccccc21` (racemic) [Example 31, (±) 1-(3,4-Dihydro-spiro[2H-1-benzopyran-2,1′-cyclobutan]-4-yl)-3-(pyridin-3-ylmethyl)urea], less than 50%; that for `O=C(NCc1ccccn1)NC1CC2(CCC2)Oc2ccccc21` (racemic) [Example 32, (±) 1-(3,4-Dihydro-spiro[2H-1-benzopyran-2,1′-cyclobutane]-4-yl)-3-(pyridin-2-ylmethyl)urea], less than 50%.
As to `Cc1ccc2c(c1)C(NC(=O)Nc1cccc3cnccc13)CC1(CCC1)O2` (racemic) [Example 40, (±)-1-(3,4-Dihydro-6-methyl-spiro[2H-1-benzopyran-2,1′-cyclobutane]-4-yl)-3-(isoquinolin-5-yl)urea], the inhibition at 1 µM was greater than 50% and the IC50 came to 123 nM.
For `Cc1ccc2c(c1)OC1(CCC1)CC2NC(=O)Nc1cccc2cnccc12` (racemic) [Example 41, (±) 1-(3,4-Dihydro-7-methyl-spiro[2H-1-benzopyran-2,1′-cyclobutane]-4-yl-3-(isoquinolin-5-yl)urea], in that order: greater than 50% and 0.48 nM.
